Measurements taken from patent US20090197906A1, “REVERSION OF MALIGNANT PHENOTYPE WITH 9-HYDROXY ELLIPTICINE DERIVATIVES” (priority 2006, published 2009).

Tests used:
[1] = tested on: Mia Paca-2; assay: SRB (sulforhodamine B) cell proliferation assay; type: cell-based, human; conditions: Homo sapiens; Mia Paca-2 (Example 11); read-out: IC50 (SRB Test-72 h)
Method: (§1) After an incubation period, cell monolayers are fixed with 10% (wt/vol) trichloroacetic acid and stained for 30 min, after which the excess dye is removed by washing repeatedly with 1% (vol/vol) acetic acid. The protein-bound dye is dissolved in 10 mM Tris base solution for optic density determination (OD) at 510 nm using a microplate reader.
(§2) The proliferation rates were calculated from the OD readings using the untreated cells as 100%.
(§3) The effects BA016FZ539 on the growth of MIA PaCa-2 and PANC-1 pancreatic cells were tested over a range of concentrations from 500 μM to 0.16 μM and measured by using the SRB calorimetric assay.
(§4) About 5000 MIA PaCa-2 or PANC-1 cells were seeded in a 96-well culture plate while adding increasing concentrations of BA016FZ539.
(§5) Growth studies were performed using both MTT and SRB calorimetric assay (Sigma). About 1500 B16F10 or 3000 pancreatic cells (MIA PaCa-2 and PANC1) were seeded in a 96-well culture plate before adding increasing concentrations of monomesylate or bimesylate.
(§6) The plates were incubated at 37° C. for 3 days and then were treated depending on SRB or MTT protocols (see material and methods).
(§7) In these two cases, the proliferation rates were calculated from the OD readings using the untreated cells as 100%.

[2] = tested on: PANC-1; assay: SRB (sulforhodamine B) cell proliferation assay; type: cell-based, human; conditions: Homo sapiens; PANC-1 (Example 11); read-out: IC50 (SRB Test-72 h)
Method: as §1, §2, §3, §4, §5, §6, §7

[3] = tested on: B16F10; assay: cloning assay in methylcellulose (colony formation); type: cell-based, murine; conditions: Mus musculus, B16-F10, 216 h; B16F10, clones counted after 9 days (Example 11); read-out: B16F10 Inhibition of colony formation IC50
Method: Cells were embedded in complete culture medium supplemented with 0.8% methylcellulose (Methocel MC4000, Sigma), seeded in triplicate into 35-mm dishes (Greiner Bio-one Ref 627102, Dominique Dutscher) and incubated at 37° C. in a humidified 5% CO2 atmosphere. The number of cells seeded was 1000 cells per dish. After one to three weeks, according to cell lines, macroscopic clones were counted.
Cells were embedded in complete culture medium supplemented with 0.8% methyl-cellulose (Methocel MC4000, Sigma), seeded in triplicate into 35-mm dishes and incubated at 37° C. in a humidified 5% CO2 atmosphere. The number of cells seeded was 1000 cells per dish. After 9 days, macroscopic clones of murine melanoma cell line B16F10 were counted.

[4] = tested on: B16F10; assay: SRB (sulforhodamine B) cell proliferation assay; type: cell-based, murine; conditions: Mus musculus, B16-F10; B16F10 (Example 11); read-out: IC50 (SRB Test-72 h)
Method: as §5, §6, §7

[5] = tested on: B16F10; assay: MTT cell proliferation assay; type: cell-based, murine; conditions: Mus musculus, B16-F10; B16F10 (Example 11); read-out: IC50 (MTT Test-72 h)
Method: Growth studies were performed using the [3-(4,5 dimethylthiazol-2-yl)-2,5-diphenyl-2H-tetrazolium bromide] (Sigma) calorimetric assay.
About 1500 to 5000 cells, according to the cell line, were seeded in a 96-well culture plate 24 hours before adding increasing concentrations of BA016DD537 or BA016FZ539. The plate was incubated at 37° C. for 3 days. 10 μl MTT stock solution (5 mg/ml in phosphate buffer saline) was added to 90 μl of complete medium in each well, the incubation was continued for 3 h at 37° C. 100 μl of lysis buffer (10% sodium dodecyl sulfate, 1% HCl 1N; pH 4.7) was added to each well, and the plate was incubated overnight. The absorbance was determined using an Integrated EIA Management System (Labsystem) at a wavelength of 570 nm. The proliferation rates were calculated from the OD readings using the untreated cells as 100%.
as §5, §6, §7

[6] = tested on: NIH 3T3 EF cells; assay: wound healing assay (cell motility); type: cell-based; conditions: non cytotoxic concentrations
Method: Wound healing assay was performed to evaluate the effect of BA016DD537 on motility of malignant NIH 3T3 EF cells and melanoma cell lines B16F10 and B16BL6. All the cells were incubated at 37° C. in a humidified 5% CO2 atmosphere. About 100 000-200 000 cells were seeded in a 6-well culture plate and BA016DD537, at the different concentrations, was added 24 hours later. Cells were grown for 3 days to confluence about 90-95% and small scratch-wounds (about 200 μm-1 mm width) were made with a pipette tip. Cell debris were removed, then the cultures were incubated in complete medium for 10 h in the presence of the same concentration of BA016DD537. Then, the cells were fixed for 10 min in PBS containing 3.7% formaldehyde at 4° C.

[7] = tested on: NIH 3T3 EF cells; assay: F-actin network rescue, FITC-phalloidin fluorescence microscopy; type: cell-based; conditions: non cytotoxic concentrations (100 nM and 200 nM), three days
Method: Malignant NIH 3T3 EF cells were seeded onto glass cover slips at a density of 2000 cells per cm^2. The next day, BA016DD537 was applied to NIH 3T3 EF cells at various non cytotoxic concentrations (100 nM and 200 nM). Three days later, cells were fixed for 10 min in PBS containing 3.7% formaldehyde at 4° C. before examination with a fluorescence microscope. The formaldehyde solution was neutralized with 50 mM NH4Cl. Extraction was carried out for 4 min with 0.4% Triton X-100 in PBS. Cells were incubated for 1 h with blocking buffer (3% bovine serum albumin in PBS) and then for 20 min with FITC-phalloidin (Sigma) at room temperature. Cover slips were mounted in Vectashieldk (Zymed) and observed through a fluorescence microscope (Nikon).

[8] = tested on: actin in NIH 3T3 EF extract; assay: fluorescence anisotropy assay of actin dynamics in cell extract; type: biochemical; conditions: for effect on actin-F elongation rate constant and actin-F steady state value: NIH 3T3 EF cytosolic fractions; for k (rate constant of F-actin elongation) / Δ mA (anisotropy enhancement, steady state F-actin): malignant NIH 3T3 EF extract, compound at 200 nM
Method: Actin dynamics is known to be impaired in tumor cells with a subsequent decrease of F-actin to G-actin ratio. Actin dynamics has been quantified in tumor cell extracts using the fluorescence anisotropy assay which gains access to rate constant of F-actin elongation (k) and steady state concentration of F-actin (Δ mA).
All reactions were carried out at 22° C. and fluorescence anisotropy signal was recovered at 520 nm with excitation at 490 nm in a Beacon 2000 (Panvera). Alexa 488 actin (Molecular Probes) was centrifuged at 35 000 rpm for 2 h at 4° C. to sediment residual actin polymers in a Beckman L5-50B ultracentrifuge. […] 80% of the supernatant was withdrawn; the concentration was defined through fluorescence measurements (excitation at 490 nm and signal recovering at 520 nm). The ultracentrifuged actin concentration was calculated using the non ultracentrifuged Alexa 488 actin as a standard. The supernatant was aliquoted, frozen in liquid nitrogen and stored at −80° C.
Before experiment, an aliquot of ultracentrifuged Alexa 488 actin was diluted to a concentration of […] in G buffer (5 mM Tris pH 8.1, 2 mM CaCl2, 0.2 mM DTT, 0.2 mM ATP). 3 μl of diluted Alexa 488 actin was mixed in 168 μl of G buffer and actin monomers anisotropy was measured before the addition of 4 μl of polymerisation buffer (2.5 M KCl, 50 mM MgCl2, 25 mM ATP), 5 μl of G buffer in the presence or in the absence of the chemical molecule and 20 μl cellular extract of normal NIH 3T3 cells or malignant NIH 3T3 EF cells at 2 mg/ml. The final concentration of Alexa 488 actin was 4 nM. The ratio of unlabelled to labelled actin was about 140/4 nM. Measurements were made each 10 sec for 200 sec. Actin monomers anisotropy value was subtracted, yielding the anisotropy enhancement (Δ mA). The data were fitted with the equation Y=Ymax. [1−exp(−K.X)]. The curves start at zero and ascend to Ymax that corresponds to the steady state anisotropy value (Δ mA eq), with a rate constant K. Y is anisotropy values of which monomers anisotropy is subtracted and X is the time.

[9] = tested on: B16BL6 melanoma cell line; assay: MTT cell viability, combination with retinoids; type: cell-based; conditions: 10 nM retinoid only, 3 days
Method: The ex vivo cell viability inhibition by BA016DD537 in the presence of the retinoids 13CRA and ATRA was tested against B16BL6 melanoma cell line using the 3-(4,5 dimethylthiazol-2-yl)-2,5-diphenyl-2H-tetrazolium bromide (MTT) calorimetric assay.
About 1000 cells were seeded in a 96-well culture plate 24 hours before adding increasing concentrations of BA016DD537, from 1 pM to 100 pM, in the absence or in the presence of 10 nM of retinoids. The plate was incubated at 37° C. for 3 days. 10 μl MTT stock solution (5 mg/ml in phosphate buffer saline) was added to 90 μl of complete medium in each well, the incubation was continued for 3 h at 37° C. 100 μl of lysis buffer (20% sodium dodecyl sulfate, 10 mM HCl, 1×PBS) was added to each well, and the plate was incubated overnight. The absorbance was determined using an Integrated EIA Management System (Labsystem) at a wavelength of 570 nm.

[10] = tested on: Melanoma B16 cells; assay: antitumor activity, i.p. grafted B16 melanoma, survival; type: in vivo, B6D2F1 mice
Method: Antitumor activity against B16 melanoma can be assessed in mice using i.p. graft of malignant cells followed by i.p. treatment. This type of protocol which by-pass various biodisponibility parameters gives information roughly on the maximal antitumor activity which can be expected for a given tumor.
Melanoma B16 cells (4×10^5) were injected in B6D2F1 mice using i.p. route at J0. Drugs, dissolved in sterile distilled water (0.5 ml) were injected daily using as well i.p. route from J1 to J9 at various concentrations. Control mice received distilled water only according the same protocol.
Treated and control mice were counted daily. TIC (mean survival of treated mice/mean survival of control mice) was calculated at J9.

| SMILES | migration of treated malignant cells into the wound [6] | rebuilding of actin network / morphology [7] | effect on actin-F elongation rate constant and actin-F steady state value [8] | k (rate constant of F-actin elongation) [8] | Δ mA (anisotropy enhancement, steady state F-actin) [8] | cell viability inhibition (MTT) [9] | also measured |
| --- | --- | --- | --- | --- | --- | --- | --- |
| Cc1c2cc[n+](CCN3CCCCC3)cc2c(C)c2c1[nH]c1ccc(O)cc12 [Bimesylate] | – | – | – | – | – | – | IC50 [1]: 2.5 µM; IC50 [2]: 37.6 µM; IC50 [3]: 0.021 µM; IC50 [4]: 1.8 µM; IC50 [5]: 2.8 µM |
| CC(=O)[O-].CC[n+]1ccc2c(C)c3[nH]c4ccc(O)cc4c3c(C)c2c1 [BA016CA107, 9-hydroxy-2(beta-ethyl)-ellipticinium acetate] | migrate in the same way as non treated malignant cells | neither 9-hydroxy-2-ethyl)-ellipticinium acetate, nor 9-hydroxy-2(methyl)-ellipticinium acetate (Celiptium) were found active | do not increase the actin-F elongation rate constant and the actin-F steady state value | 0.0280 s⁻¹ | 42.14 | – | – |
| CC1=C(/C=C/C(C)=C/C=C/C(C)=C/C(=O)O)C(C)(C)CCC1 [ATRA, all-transretinoic acid, reference compound] | – | – | – | – | – | No cell viability inhibition | – |
| CC1=C(/C=C/C(C)=C/C=C/C(C)=C\C(=O)O)C(C)(C)CCC1 [13CRA, 13-cis-retinoic acid, reference compound] | – | – | – | – | – | No cell viability inhibition | – |
| Cc1c2cc[n+](C)cc2c(C)c2c1[nH]c1ccc(O)cc12 [BA016CA77, 9-hydroxy-2(beta-methyl)-ellipticinium acetate] | migrate in the same way as non treated malignant cells | neither 9-hydroxy-2-ethyl)-ellipticinium acetate, nor 9-hydroxy-2(methyl)-ellipticinium acetate (Celiptium) were found active | do not increase the actin-F elongation rate constant and the actin-F steady state value | 0.0416 s⁻¹ | 38.33 | – | T/C (%) (mean survival of treated mice/mean survival of control mice) ([10]; 0.125 mg/kg/inj. i.p. daily J1 to J9): 121%; T/C (%) (mean survival of treated mice/mean survival of control mice) ([10]; 0.25 mg/kg/inj. i.p. daily J1 to J9): 122%; T/C (%) (mean survival of treated mice/mean survival of control mice) ([10]; 0.5 mg/kg/inj. i.p. daily J1 to J9): 58%; antitumor activity against B16 melanoma (T/C>125% = significant) ([10]; i.p. graft, i.p. treatment): no significant antitumor activity |
